Source: patent publication US20230301300A1, “HERBICIDAL COMPOSITIONS” (SYNGENTA CROP PROTECTION AG, priority 2020, published 2023)

Key:
Experiment in all cases: B2 Post-Emergence Efficacy - Test 2
Type in all cases: in vivo
[1] = tested on: Euphorbia hetrophylla (EPHHL); settings: 15 days after application, 0-100 scale
Procedure, shortened: (§1)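 Visual phytotoxicity on a 0–100 scale, where 100 means total kill, was recorded 15 days following a single post-emergence spray. The spray was an aqueous dilution of active ingredient in IF50 with 0.2% v/v Genapol X080, applied to 12-day-old plants.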

[2] = tested on: Avena fatua (AVEFA); settings: 15 days after application, 0-100 scale
Procedure, shortened: as §1

[3] = tested on: Glycine max (GLXMA); settings: 15 days after application; for Herbicidal activity GLXMA: 0-100 scale; for Herbicidal activity on a 0-100 scale, GLXMA: 0=no damage, 100=total kill
Procedure, shortened: as §1

[4] = tested on: Xanthium strumarium (XANST); settings: 15 days after application, 0-100 scale
Procedure, shortened: as §1

[5] = tested on: Alopecurus myosuroides (ALOMY); settings: 15 days after application, 0-100 scale
Procedure, shortened: as §1

[6] = tested on: Chenopodium album (CHEAL); settings: 15 days after application, 0-100 scale
Procedure, shortened: as §1

[7] = tested on: Brassica napus (BRSNN); settings: 15 days after application, 0-100 scale
Procedure, shortened: as §1

[8] = tested on: Bromus tectorum (BROTE); settings: 15 days after application, 0-100 scale
Procedure, shortened: as §1

[9] = tested on: Eleisine indica (ELEIN); settings: 15 days after application, 0=no damage, 100=total kill
Procedure, shortened: as §1

[10] = tested on: Beta vulgaris (BEAVA); settings: 15 days after application, 0-100 scale
Procedure, shortened: as §1

[11] = tested on: Panicum miliaceum (PANMI); settings: 15 days after application, 0=no damage, 100=total kill
Procedure, shortened: as §1

[12] = tested on: Sida spinosa (SIDSP); settings: 15 days after application, 0-100 scale
Procedure, shortened: as §1

[13] = tested on: Veronica persica (VERPE); settings: 15 days after application, 0-100 scale
Procedure, shortened: as §1

[14] = tested on: Sorghum bicolour (SORVU); settings: 15 days after application, 0=no damage, 100=total kill
Procedure, shortened: as §1

[15] = tested on: Stellaria media (STEME); settings: 15 days after application, 0-100 scale
Procedure, shortened: as §1

[16] = tested on: Ipomoea hederacea (IPOHE); settings: 15 days after application, 0-100 scale
Procedure, shortened: as §1

[17] = tested on: Echinochloa crus galli (ECHCG); settings: 15 days after application, 0=no damage, 100=total kill
Procedure, shortened: as §1

[18] = tested on: Amaranthus retroflexus (AMARE); settings: 15 days after application, 0-100 scale
Procedure, shortened: as §1

Cc1nn(C)c(=O)c(-c2c(F)ccc(Cl)c2CCc2ccc(F)cc2)c1OC(=O)C(C)C [Compound 1.125, [5-[3-chloro-6-fluoro-2-[2-(4-fluorophenyl)ethyl]phenyl]-1,3-dimethyl-6-oxo-pyridazin-4-yl] 2-methylpropanoate]
Herbicidal activity EPHHL ([1]; 15 g/Ha): 90
Herbicidal activity EPHHL ([1]; 30 g/Ha): 90
Herbicidal activity EPHHL ([1]; 60 g/Ha): 100
Herbicidal activity EPHHL ([1]; 125 g/Ha): 100
Herbicidal activity EPHHL ([1]; 250 g/Ha): 100
Herbicidal activity EPHHL ([1]; 500 g/Ha): 100
Herbicidal activity AVEFA ([2]; 15 g/Ha): 30
Herbicidal activity AVEFA ([2]; 30 g/Ha): 40
Herbicidal activity AVEFA ([2]; 60 g/Ha): 60
Herbicidal activity AVEFA ([2]; 125 g/Ha): 70
Herbicidal activity AVEFA ([2]; 250 g/Ha): 70
Herbicidal activity AVEFA ([2]; 500 g/Ha): 80
Herbicidal activity GLXMA ([3]; 15 g/Ha): 40
Herbicidal activity on a 0-100 scale, GLXMA ([3]; 15 g/Ha): 40
Herbicidal activity GLXMA ([3]; 30 g/Ha): 70
Herbicidal activity on a 0-100 scale, GLXMA ([3]; 30 g/Ha): 70
Herbicidal activity GLXMA ([3]; 60 g/Ha): 70
Herbicidal activity on a 0-100 scale, GLXMA ([3]; 60 g/Ha): 70
Herbicidal activity GLXMA ([3]; 250 g/Ha): 90
Herbicidal activity on a 0-100 scale, GLXMA ([3]; 250 g/Ha): 90
Herbicidal activity GLXMA ([3]; 500 g/Ha): 90
Herbicidal activity on a 0-100 scale, GLXMA ([3]; 500 g/Ha): 90
Herbicidal activity XANST ([4]; 30 g/Ha): 90
Herbicidal activity XANST ([4]; 60 g/Ha): 90
Herbicidal activity XANST ([4]; 125 g/Ha): 90
Herbicidal activity XANST ([4]; 250 g/Ha): 90
Herbicidal activity XANST ([4]; 500 g/Ha): 100
Herbicidal activity ALOMY ([5]; 15 g/Ha): 10
Herbicidal activity ALOMY ([5]; 30 g/Ha): 10
Herbicidal activity ALOMY ([5]; 60 g/Ha): 30
Herbicidal activity ALOMY ([5]; 125 g/Ha): 30
Herbicidal activity ALOMY ([5]; 250 g/Ha): 60
Herbicidal activity ALOMY ([5]; 500 g/Ha): 40
Herbicidal activity CHEAL ([6]; 15 g/Ha): 90
Herbicidal activity CHEAL ([6]; 30 g/Ha): 90
Herbicidal activity CHEAL ([6]; 60 g/Ha): 90
Herbicidal activity CHEAL ([6]; 125 g/Ha): 90
Herbicidal activity CHEAL ([6]; 250 g/Ha): 90
Herbicidal activity CHEAL ([6]; 500 g/Ha): 90
Herbicidal activity BRSNN ([7]; 15 g/Ha): 80
Herbicidal activity BRSNN ([7]; 30 g/Ha): 80
Herbicidal activity BRSNN ([7]; 60 g/Ha): 80
Herbicidal activity BRSNN ([7]; 125 g/Ha): 90
Herbicidal activity BRSNN ([7]; 250 g/Ha): 90
Herbicidal activity BRSNN ([7]; 500 g/Ha): 90
Herbicidal activity BROTE ([8]; 15 g/Ha): 0
Herbicidal activity BROTE ([8]; 30 g/Ha): 0
Herbicidal activity BROTE ([8]; 60 g/Ha): 0
Herbicidal activity BROTE ([8]; 125 g/Ha): 0
Herbicidal activity BROTE ([8]; 250 g/Ha): 10
Herbicidal activity BROTE ([8]; 500 g/Ha): 10
Herbicidal activity on a 0-100 scale, ELEIN ([9]; 15 g/Ha): 40
Herbicidal activity on a 0-100 scale, ELEIN ([9]; 30 g/Ha): 40
Herbicidal activity on a 0-100 scale, ELEIN ([9]; 60 g/Ha): 70
Herbicidal activity on a 0-100 scale, ELEIN ([9]; 125 g/Ha): 70
Herbicidal activity on a 0-100 scale, ELEIN ([9]; 250 g/Ha): 80
Herbicidal activity on a 0-100 scale, ELEIN ([9]; 500 g/Ha): 80
Herbicidal activity BEAVA ([10]; 15 g/Ha): 70
Herbicidal activity BEAVA ([10]; 30 g/Ha): 60
Herbicidal activity BEAVA ([10]; 60 g/Ha): 60
Herbicidal activity BEAVA ([10]; 125 g/Ha): 70
Herbicidal activity BEAVA ([10]; 250 g/Ha): 70
Herbicidal activity BEAVA ([10]; 500 g/Ha): 70
Herbicidal activity on a 0-100 scale, PANMI ([11]; 15 g/Ha): 20
Herbicidal activity on a 0-100 scale, PANMI ([11]; 30 g/Ha): 30
Herbicidal activity on a 0-100 scale, PANMI ([11]; 60 g/Ha): 50
Herbicidal activity on a 0-100 scale, PANMI ([11]; 125 g/Ha): 50
Herbicidal activity on a 0-100 scale, PANMI ([11]; 250 g/Ha): 70
Herbicidal activity on a 0-100 scale, PANMI ([11]; 500 g/Ha): 80
Herbicidal activity SIDSP ([12]; 60 g/Ha): 80
Herbicidal activity SIDSP ([12]; 125 g/Ha): 90
Herbicidal activity SIDSP ([12]; 250 g/Ha): 90
Herbicidal activity SIDSP ([12]; 500 g/Ha): 100
Herbicidal activity VERPE ([13]; 15 g/Ha): 70
Herbicidal activity VERPE ([13]; 30 g/Ha): 70
Herbicidal activity VERPE ([13]; 60 g/Ha): 70
Herbicidal activity VERPE ([13]; 125 g/Ha): 80
Herbicidal activity VERPE ([13]; 250 g/Ha): 80
Herbicidal activity VERPE ([13]; 500 g/Ha): 90
Herbicidal activity on a 0-100 scale, SORVU ([14]; 15 g/Ha): 0
Herbicidal activity on a 0-100 scale, SORVU ([14]; 30 g/Ha): 50
Herbicidal activity on a 0-100 scale, SORVU ([14]; 60 g/Ha): 50
Herbicidal activity on a 0-100 scale, SORVU ([14]; 125 g/Ha): 70
Herbicidal activity on a 0-100 scale, SORVU ([14]; 250 g/Ha): 80
Herbicidal activity on a 0-100 scale, SORVU ([14]; 500 g/Ha): 90
Herbicidal activity STEME ([15]; 15 g/Ha): 90
Herbicidal activity STEME ([15]; 30 g/Ha): 90
Herbicidal activity STEME ([15]; 60 g/Ha): 90
Herbicidal activity STEME ([15]; 125 g/Ha): 90
Herbicidal activity STEME ([15]; 250 g/Ha): 90
Herbicidal activity STEME ([15]; 500 g/Ha): 90
Herbicidal activity IPOHE ([16]; 15 g/Ha): 90
Herbicidal activity IPOHE ([16]; 30 g/Ha): 100
Herbicidal activity IPOHE ([16]; 60 g/Ha): 100
Herbicidal activity IPOHE ([16]; 125 g/Ha): 100
Herbicidal activity IPOHE ([16]; 250 g/Ha): 100
Herbicidal activity IPOHE ([16]; 500 g/Ha): 100
Herbicidal activity on a 0-100 scale, ECHCG ([17]; 15 g/Ha): 70
Herbicidal activity on a 0-100 scale, ECHCG ([17]; 30 g/Ha): 80
Herbicidal activity on a 0-100 scale, ECHCG ([17]; 60 g/Ha): 80
Herbicidal activity on a 0-100 scale, ECHCG ([17]; 125 g/Ha): 80
Herbicidal activity on a 0-100 scale, ECHCG ([17]; 250 g/Ha): 90
Herbicidal activity on a 0-100 scale, ECHCG ([17]; 500 g/Ha): 100
Herbicidal activity AMARE ([18]; 15 g/Ha): 80
Herbicidal activity AMARE ([18]; 30 g/Ha): 90
Herbicidal activity AMARE ([18]; 60 g/Ha): 90
Herbicidal activity AMARE ([18]; 125 g/Ha): 100
Herbicidal activity AMARE ([18]; 250 g/Ha): 100
Herbicidal activity AMARE ([18]; 500 g/Ha): 100
